{
  "source": "patent US20200179296A1",
  "about": "“Accelerated Clearance of Biologic Therapeutics Using Click-Antidotes” (The Regents of the University of Colorado, a body corporate, priority 2018, published 2020)",
  "key": {"IRDye 800CW-labeled IgG [1]": {"system": "IRDye 800CW-labeled IgG", "test": "Organ distribution of IgG fluorescence in control and antidote-injected groups", "format": "in vivo, BALB/c mice", "conditions": "48-72 h after antidote injection", "from_the_text": "Graphs show mean gray value of fluorescence scans, images show colored images in 800 nm channel. Organs were scanned in […]; each organ's image corresponds to the bar graph below; representative images are shown. The signal represents both circulating IgG and organ-deposited IgG. Brightness and contrast were adjusted to the same extent in control and treated groups of the same experiment. Due to scanner settings, antibody batch and time when the experiment was terminated, the grey values show differences between experiments. 2-way ANOVA test with multiple comparisons, n=3 mice per group. Means and SD of experimental replicates are shown\nFemale BALB/c mice 6-8 weeks old were used for the experiments and bred in house. […] The spot integrated density of a 16-bit TIFF image was measured with ImageJ and plotted as a function of time. The fluorescence of dots at initial time point was used as 100%. […] Mean fluorescence was determined from 16-bit images using ImageJ software by subtracting the background, drawing a ROI around the organs, and using a measure function to determine mean gray value.\nTo study the depletion in the peripheral organs, the main organs were scanned 48-72 h after the antidote injection with Li-COR Odyssey NIR scanner. The mean fluorescence reflects both the deposited IgG and the circulating IgG (either free or antidote-bound). […]"}, "IRDye 800CW-labeled IgG [2]": {"system": "IRDye 800CW-labeled IgG", "test": "In vivo depletion of blood IgG by click-modified antidotes", "set-up": "species or system BALB/c mice", "experimental": "Blood IgG levels were measured at different time points, up to 72 h post injection. […] Black line is “IgG only”, green line is “IgG+antidote”. Time of IgG injection is “0” on the X-axis. The antidotes were injected at different times after IgG injection as marked by red arrows. First blood draw was at 1 h post-IgG injection (100%). The IgG only (control) group was included in every experiment. […] Two tailed t-test, n=3 mice per group.\n(§1) Female BALB/c mice 6-8 weeks old were used for the experiments and bred in house. In order to determine circulation half-life of NIR-labeled antibodies and antidotes, 2 μL blood were collected at different time points through retroorbital vein or mandibular vein and were applied in duplicates on a 0.22 μm nitrocellulose membrane and scanned at 800 nm using Li-COR Odyssey. The spot integrated density of a 16-bit TIFF image was measured with ImageJ and plotted as a function of time. The fluorescence of dots at initial time point was used as 100%. For organ distribution, mice were euthanized at 48-72 h post injection and the organs were placed in wells on a 12-well plate. Organs were scanned with Li-COR Odyssey at 800 nm. Mean fluorescence was determined from 16-bit images using ImageJ software by subtracting the background, drawing a ROI around the organs, and using a measure function to determine mean gray value.\nIn order to test the depletion efficiency of the antidotes, female BALB/c mice were injected with 25 μg IRDye 800CW-labeled IgG followed by PBS (control) or the antidote, and the levels of IgG in blood (both antidote-bound and free) were measured at different times post-IgG injection (FIG. 2A). […] To test the ability of DSPE-PEG-MTZ to decrease total blood levels of IgG (both antidote bound and free), mice were injected with IRDye 800CW-IgG-TCO followed 1.5 h later with the lipid (1 mg, 1660-fold molar excess of MTZ groups). […] To test the depletion efficiency of BSA-TCO, we injected mice with 25 μg of IgG-MTZ followed by BSA-TCO at 2 h and 3 h post-IgG injection (500 μg each; ˜400 fold excess of TCO; 92-fold excess of surface-binding capacity). […] In view of the large excess of the injected lipid and BSA over IgG, it is unlikely that insufficient binding capacity is responsible for the observed difference in the depletion efficiency of these antidotes. To further investigate which factors contribute to the depletion efficiency, CLIO-TCO and CLIO NW-TCO were compared that have similar sizes but different blood half-lives (FIGS. 2E, 2F). […] It was also confirmed that CLIO-TCO specifically binds to IgG via click chemistry (FIG. 11B), which confirms that the observed decrease in IgG blood fluorescence was due to depletion."}, "[3]": {"test": "Size and zeta potential of the antidotes (Zetasizer Nano ZS), particle concentration", "format": "physicochemical", "from_the_text": "Synthesis of CLIO and CLIO NWs: CLIO NWs were synthesized from native 20 kDa dextran (Sigma) whereas CLIO were synthesized from reduced T-10 (10 k Da) dextran (Pharmacosmos). Dextran, Fe (III) chloride and Fe (II) chloride were mixed in DDW and titrated with ammonia using a modified Molday precipitation method. The ratio between dextran and iron salts determined the final size of the nanoparticles. Excess dextran was removed with ultrafiltration and the particles were crosslinked with epichlorohydrin as described. Excess epichlorohydrin was removed with ultrafiltration and particles were aminated by addition of ammonium hydroxide (CLIO NWs) or diaminohexane (CLIO) overnight at 4° C. […] Size and zeta potential were determined using Zetasizer Nano ZS (Malvern Instruments Ltd, Malvern, UK). […] The amino group content was determined by reaction with Cy7-NHS. […] The amount of the reacted dye was determined by the difference in the supernatant fluorescence between the reaction tube and control tube (no particles). The number of amines per nanoparticle was determined to be ˜100,000 per CLIO and CLIO NW.\nBSA-TCO size and zeta potential are similar to those of native BSA values reported in literature. Particle concentration of BSA was determined based on Mw of 67 kDa; CLIO and CLIONW concentration was determined as described before. […]"}, "[4]": {"test": "Elimination profile and organ distribution of NIR-labeled antidotes after i.v. injection", "format": "in vivo", "conditions": "female BALB/c mice", "from_the_text": "FIGS. 1A-1F show the antidotes used in the study. […] The nanocarriers were modified with click groups (DSPE-PEG3400 with MTZ, BSA with TCO, CLIO NW and CLIO with TCO) as described in Methods. […] Crosslinked dextran shell is not visible. Size bar=50 nm. FIGS. 1C-1F show the elimination profile of the antidotes and organ distribution (NIR images). Labels are as follows: k-kidney, s-spleen, Iv-liver, i-intestine, lu-lung, h-heart). DSPE-PEG-MTZ, BSA-TCO and CLIO NW-TCO are long circulating particles, whereas CLIO-TCO are short circulating particles. […] N=3 mice per group.\nas §1, with “For organ distribution, mice were euthanized at 48-72 h post injection and the organs were placed in wells on a 12-well plate. Organs were scanned with Li-COR Odyssey at 800 nm.” left out, “value. […]” for “value.”"}},
  "data": [
    {"substance": "BSA-TCO: bovine serum albumin conjugated with TCO-PEG4-NHS ester; macromolecule-based click antidote", "values": [
      {"measurement": "Effect on IgG fluorescence in the liver", "setting": "IRDye 800CW-labeled IgG [1]", "result": "increased the liver fluorescence"},
      {"measurement": "Effect on IgG fluorescence in the organs", "setting": "IRDye 800CW-labeled IgG [1]; Li-COR 800 nm", "result": "did not decrease the level of fluorescence in other organs"},
      {"measurement": "Decrease in blood level of IgG at 3 h post-IgG injection vs control", "setting": "IRDye 800CW-labeled IgG [2]; 25 μg IgG-MTZ, BSA-TCO 500 μg at 2 h and 3 h, CLIO-TCO 290 μg at 1 h", "result": 40, "unit": "%"},
      {"measurement": "Decrease in blood level of IgG at 24 h post IgG injection vs control", "setting": "IRDye 800CW-labeled IgG [2]; 25 μg IgG, DSPE-PEG-MTZ 1 mg, BSA-TCO 2 x 500 μg, CLIO-TCO 290 μg", "result": 53, "unit": "%"},
      {"measurement": "Decrease in AUC24 h of blood IgG vs control, 3 injections of antidote", "setting": "IRDye 800CW-labeled IgG [2]; BSA-TCO 500 μg at 1.5, 3, 23 h, CLIO-TCO 150 μg at 2, 3, 4 h post-IgG", "result": 38, "unit": "%"},
      {"measurement": "Decrease in AUC24 h of blood IgG vs control", "setting": "IRDye 800CW-labeled IgG [2]; DSPE-PEG-MTZ 1 injection 1 mg, BSA-TCO 2 injections 500 μg each, CLIO-TCO 1 injection 290 μg", "result": 41, "unit": "%"},
      {"measurement": "Particles per mg", "setting": "[3]; BSA based on Mw of 67 kDa", "result": "9 × 10^12 per mg"},
      {"measurement": "Diameter", "setting": "[3]; hydrodynamic diameter, intensity-weighted distribution", "result": 8, "unit": "nm"},
      {"measurement": "Organ accumulation of the antidote", "setting": "[4]; NIR organ images", "result": "significant accumulation in the lungs"},
      {"measurement": "Elimination half-life (slow phase)", "setting": "[4]; i.v., blood", "result": 4, "unit": "h"}
    ]}
  ]
}
